Assay results published in PubChem BioAssay (NCI).
Values joined by “and” are separate entries in the source; they are usually repeats but may differ in a detail not shown here. Equal values may be shown once.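 1) Cells in 96-well plates. 2) Compound, 48 h, 5 concentrations. 3) Linear interpolation between surrounding doses. 4) Unreached endpoint = highest concentration. GI50 marks 50% less growth. TGI denotes the concentration required for complete inhibition of growth.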

Tests used:
Assay in all cases: inhibition of tumour cell growth, NCI panel, 48 h
[1] = tested on: HT29 colon
[2] = tested on: IGROV1 ovarian
[3] = tested on: MCF7 breast
[4] = tested on: OVCAR-5 ovarian
[5] = tested on: PC-3 prostate
[6] = tested on: RPMI-8226 leukemia
[7] = tested on: SN12C renal
[8] = tested on: SNB-75 CNS
[9] = tested on: SW-620 colon
[10] = tested on: UACC-62 melanoma

SMILES | GI50 [1] | TGI [1] | GI50 [2] | TGI [2] | GI50 [3] | TGI [3] | GI50 [4] | TGI [4] | GI50 [5] | TGI [5] | GI50 [6] | TGI [6] | GI50 [7] | TGI [7] | GI50 [8] | TGI [8] | GI50 [9] | TGI [9] | GI50 [10] | TGI [10]
Cn1ncc2cc(-c3cnc(N)c(Cl)c3N3CCC4(CCNC4=O)CC3)ccc21 | 46.2 µM | > 100 µM | 14.8 µM | > 100 µM | 24.6 µM | > 100 µM | > 100 µM | > 100 µM | 42.1 µM | > 100 µM | 16 µM | 95.5 µM | 32.7 µM | > 100 µM | 17 µM | 77.8 µM | 21.3 µM | > 100 µM | 30.7 µM | > 100 µM
CCCC[C@@H]1NC(=O)[C@H](CCCCN)NC(=O)[C@H](CCCNC(=N)N)NC(=O)[C@H](CC(C)C)NC(=O)[C@@H](NC(=O)[C@H](Cc2cccc(Cl)c2)NC(=O)[C@@H]2CCCN2C(=O)[C@@H](NC(C)=O)C(C)C)CCSSC[C@@H](C(=O)N[C@@H](CCCCN)C(=O)N2CCC[C@H]2C(=O)N2CCC[C@H]2C(=O)N[C@@H](CCC(=O)O)C(N)=O)NC(=O)[C@H](Cc2ccccc2)NC(=O)[C@H](CO)NC(=O)[C@H](C)NC(=O)[C@@H]2CCCN2C1=O | > 50 µM | > 50 µM | > 50 µM | > 50 µM | > 50 µM | > 50 µM | > 50 µM | > 50 µM | > 50 µM | > 50 µM | > 50 µM | > 50 µM | > 50 µM | > 50 µM | > 50 µM | > 50 µM | > 50 µM | > 50 µM | > 50 µM | > 50 µM
CCCOC(=O)N[C@H]1CCc2c(Br)c(OC)c(OC)c(OC)c2-c2ccc(SC)c(=O)cc21 | 0.0297 µM | > 48 µM | 0.0377 µM | > 46.2 µM | < 0.01 µM | 12.2 µM | 0.0501 µM | 34.5 µM | 0.0197 µM | > 100 µM | 0.0259 µM | 10.4 µM | 0.0437 µM | 17.3 µM | 0.0262 µM | 25.5 µM | 0.0245 µM | > 100 µM | 0.0365 µM | 13.2 µM
CCC(=O)Sc1ccccc1C(=O)Nc1ccc(Cl)cc1 | 7.09 µM | 44.5 µM | 13.7 µM | > 100 µM | 3.86 µM | 36.2 µM | 15.9 µM | 33.2 µM | 10.8 µM | 56.3 µM | 4.32 µM | 29.3 µM | 4.26 µM | 41.8 µM | 19.2 µM | 98.2 µM | 3.63 µM | 25.8 µM | 4.38 µM | 24.3 µM
COC1=CC(c2ccc[nH]2)=N/C1=C\c1[nH]c(C)c(C(=O)CCC(=O)Oc2ccc3c(c2)CCC2C3CC[C@]3(C)C(=O)CC[C@@H]23)c1C (some centres not stated) | 0.839 µM | > 100 µM | 8.3 µM | > 100 µM | 1.91 µM | > 49.3 µM | 7.88 µM | > 81.6 µM | 6.52 µM | > 100 µM | 5.85 µM | > 100 µM | 5.23 µM | > 100 µM | > 42.7 µM | > 96.6 µM | 0.773 µM | > 37.9 µM | 3.71 µM | 17.9 µM
COc1ccc(/C=C2/CN(C(=O)c3ccccc3F)C/C(=C\c3ccc(OC)cc3)C2=O)cc1 | 1.96 µM | 3.78 µM | 3.43 µM | 11.3 µM | 0.543 µM | 3.56 µM | 7.55 µM | 28.8 µM | 2.57 µM | 8.87 µM | 0.242 µM | 0.714 µM | 2.78 µM | 10.9 µM | 11.4 µM | 39.8 µM | 1.86 µM | 3.84 µM | 2.53 µM | 11.5 µM
COc1ccc2c(c1)Oc1nc(N)c(C#N)c(N)c1C2Sc1ccc(SC)cc1 (configuration not stated) | 2.2 µM | 4.36 µM | 1.73 µM | 3.78 µM | 1.83 µM | 4.5 µM | 1.8 µM | 3.55 µM | 1.77 µM | 3.27 µM | 2.86 µM | 6.43 µM | 1.64 µM | 3.06 µM | 1.46 µM | 2.8 µM |  |  | 1.81 µM | 3.33 µM
COc1ccc2c(c1)C(=O)c1c-2c(NCCCN(C)C)nc2ccccc12 | 1.02 µM | 2.82 µM | 6.99 µM | 19.9 µM | 1.54 µM | 4.05 µM | 10.2 µM | 21.9 µM | 3.53 µM | 14.2 µM | 1.93 µM | 4.39 µM | 2.26 µM | 6.84 µM | 0.997 µM | 11.8 µM | 1.45 µM | 2.99 µM | 2.09 µM | 4.41 µM
Cc1c(Cl)ccc2c1NC(=O)C2(O)CC(=O)c1ccc(Cl)cc1Cl (configuration not stated) |  | > 50 µM |  | > 50 µM |  | > 50 µM |  | > 50 µM |  | > 50 µM |  | > 50 µM |  | > 50 µM |  | > 41.3 µM |  | > 50 µM |  | > 50 µM
O=C(Cn1ccnc1[N+](=O)[O-])N(CCO)CCO | > 1250 µM | > 1250 µM | > 1250 µM | > 1250 µM | > 250 µM | > 1250 µM | > 1250 µM | > 1250 µM |  | > 250 µM | > 1250 µM | 250 µM and > 1250 µM | > 1250 µM | > 1250 µM | 182 µM | 250 µM and > 1250 µM | > 1250 µM | > 1250 µM | > 943 µM | > 250 µM and 1240 µM
COc1cc(OC)c(-c2cc(=O)c3c(OC)c(OC)c(OC)c(OC)c3o2)cc1OC |  | > 100 µM |  | > 100 µM |  | > 100 µM |  | > 100 µM |  | > 100 µM |  | > 100 µM |  | > 100 µM |  | > 73.9 µM |  | > 100 µM |  | > 88.5 µM
O=C1c2ccn(CCCCN3CCOCC3)c2C(=O)c2c1c(O)c1ccccc1c2O | 3.75 µM | 97 µM | 20.5 µM | > 100 µM | 6.26 µM | 24.8 µM | 11.1 µM | 23.8 µM | 6.96 µM | 27.3 µM | 3.53 µM | > 100 µM | 11.4 µM | 24 µM | > 100 µM | > 100 µM |  |  |  | 
CC1=CC[C@@H]2[C@@H](CC[C@@]2(C)O)C(C)(C)[C@H]1CC[C@@H]1[C@@]2(C)CCC(=O)C(C)(C)O[C@@H]2CC[C@]1(C)O |  |  |  | 76.5 µM |  | > 100 µM |  | > 100 µM |  | > 100 µM |  | 51.1 µM |  | 42.3 µM |  | > 100 µM |  | > 100 µM |  | 34.9 µM
